Data taken from ChEMBL document CHEMBL5653631, “A Potent and Selective ULK1 Inhibitor Suppresses Autophagy and Sensitizes Cancer Cells to Nutrient Stress” (iScience, 2018).

Key:
[1] = target: T1, Serine/threonine-protein kinase Nek1 (Homo sapiens) (UniProt Q96PY6); assay: Inhibition of human recombinant NEK1 at 500 nM in presence of ATP by radiometric assay relative to control
T1 sequence (whole entry): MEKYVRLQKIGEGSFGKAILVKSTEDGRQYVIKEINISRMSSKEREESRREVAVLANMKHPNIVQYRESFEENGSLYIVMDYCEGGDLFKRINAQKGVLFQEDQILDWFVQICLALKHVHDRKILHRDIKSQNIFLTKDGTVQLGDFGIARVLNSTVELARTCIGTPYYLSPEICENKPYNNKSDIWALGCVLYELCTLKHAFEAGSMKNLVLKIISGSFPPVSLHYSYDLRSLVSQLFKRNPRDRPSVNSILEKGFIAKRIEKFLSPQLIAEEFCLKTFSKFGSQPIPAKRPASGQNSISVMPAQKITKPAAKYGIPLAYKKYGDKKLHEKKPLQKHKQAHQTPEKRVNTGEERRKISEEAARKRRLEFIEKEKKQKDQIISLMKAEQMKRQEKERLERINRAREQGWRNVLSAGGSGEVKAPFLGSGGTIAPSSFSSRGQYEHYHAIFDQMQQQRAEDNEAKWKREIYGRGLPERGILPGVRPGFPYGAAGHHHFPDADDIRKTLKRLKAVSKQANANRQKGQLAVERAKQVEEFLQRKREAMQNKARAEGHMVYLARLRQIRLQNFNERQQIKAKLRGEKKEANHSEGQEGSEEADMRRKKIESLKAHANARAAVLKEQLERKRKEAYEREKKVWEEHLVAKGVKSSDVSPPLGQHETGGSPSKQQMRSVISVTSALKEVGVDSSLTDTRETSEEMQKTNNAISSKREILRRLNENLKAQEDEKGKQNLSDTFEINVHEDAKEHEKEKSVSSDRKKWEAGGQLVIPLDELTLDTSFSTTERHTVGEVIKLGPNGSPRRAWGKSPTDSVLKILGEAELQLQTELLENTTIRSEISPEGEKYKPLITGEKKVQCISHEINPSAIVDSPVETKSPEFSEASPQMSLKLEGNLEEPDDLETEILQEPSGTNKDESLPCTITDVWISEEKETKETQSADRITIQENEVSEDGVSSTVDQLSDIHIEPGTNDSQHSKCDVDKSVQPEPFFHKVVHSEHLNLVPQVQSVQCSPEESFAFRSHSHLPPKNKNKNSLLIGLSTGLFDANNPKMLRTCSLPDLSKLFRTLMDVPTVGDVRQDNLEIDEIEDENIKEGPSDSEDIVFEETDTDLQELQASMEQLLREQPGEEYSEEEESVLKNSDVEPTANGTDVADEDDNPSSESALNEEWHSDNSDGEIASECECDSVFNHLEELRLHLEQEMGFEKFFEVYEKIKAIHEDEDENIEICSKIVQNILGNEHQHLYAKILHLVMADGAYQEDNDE

[2] = target: T2, Beta-adrenergic receptor kinase 1 (Homo sapiens) (UniProt P25098); assay: Inhibition of human recombinant BARK1 at 500 nM related to control ULK1
T2 sequence (whole entry): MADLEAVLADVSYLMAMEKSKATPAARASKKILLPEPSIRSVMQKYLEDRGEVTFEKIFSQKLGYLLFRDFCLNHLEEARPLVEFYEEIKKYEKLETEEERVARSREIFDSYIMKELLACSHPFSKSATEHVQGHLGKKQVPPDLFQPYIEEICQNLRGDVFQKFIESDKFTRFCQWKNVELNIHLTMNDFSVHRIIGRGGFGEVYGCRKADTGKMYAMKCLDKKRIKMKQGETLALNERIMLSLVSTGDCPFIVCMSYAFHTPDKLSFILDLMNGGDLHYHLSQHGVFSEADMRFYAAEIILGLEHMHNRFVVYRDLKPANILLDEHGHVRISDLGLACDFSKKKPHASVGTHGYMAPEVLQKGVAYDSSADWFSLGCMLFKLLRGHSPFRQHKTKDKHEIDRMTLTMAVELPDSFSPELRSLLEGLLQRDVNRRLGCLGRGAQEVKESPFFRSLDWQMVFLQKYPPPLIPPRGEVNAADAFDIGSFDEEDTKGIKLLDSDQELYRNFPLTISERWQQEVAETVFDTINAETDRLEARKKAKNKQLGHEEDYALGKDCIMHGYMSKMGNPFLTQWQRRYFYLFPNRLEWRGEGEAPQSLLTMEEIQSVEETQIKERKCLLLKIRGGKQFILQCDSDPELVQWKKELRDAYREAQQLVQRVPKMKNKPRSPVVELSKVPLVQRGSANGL

[3] = target: Platelet-derived growth factor receptor alpha (Homo sapiens) (UniProt P16234); assay: Inhibition of human recombinant PDGFRa at 500 nM related to control ULK1
Chain of Platelet-derived growth factor receptor alpha (Homo sapiens) (P16234 whole entry): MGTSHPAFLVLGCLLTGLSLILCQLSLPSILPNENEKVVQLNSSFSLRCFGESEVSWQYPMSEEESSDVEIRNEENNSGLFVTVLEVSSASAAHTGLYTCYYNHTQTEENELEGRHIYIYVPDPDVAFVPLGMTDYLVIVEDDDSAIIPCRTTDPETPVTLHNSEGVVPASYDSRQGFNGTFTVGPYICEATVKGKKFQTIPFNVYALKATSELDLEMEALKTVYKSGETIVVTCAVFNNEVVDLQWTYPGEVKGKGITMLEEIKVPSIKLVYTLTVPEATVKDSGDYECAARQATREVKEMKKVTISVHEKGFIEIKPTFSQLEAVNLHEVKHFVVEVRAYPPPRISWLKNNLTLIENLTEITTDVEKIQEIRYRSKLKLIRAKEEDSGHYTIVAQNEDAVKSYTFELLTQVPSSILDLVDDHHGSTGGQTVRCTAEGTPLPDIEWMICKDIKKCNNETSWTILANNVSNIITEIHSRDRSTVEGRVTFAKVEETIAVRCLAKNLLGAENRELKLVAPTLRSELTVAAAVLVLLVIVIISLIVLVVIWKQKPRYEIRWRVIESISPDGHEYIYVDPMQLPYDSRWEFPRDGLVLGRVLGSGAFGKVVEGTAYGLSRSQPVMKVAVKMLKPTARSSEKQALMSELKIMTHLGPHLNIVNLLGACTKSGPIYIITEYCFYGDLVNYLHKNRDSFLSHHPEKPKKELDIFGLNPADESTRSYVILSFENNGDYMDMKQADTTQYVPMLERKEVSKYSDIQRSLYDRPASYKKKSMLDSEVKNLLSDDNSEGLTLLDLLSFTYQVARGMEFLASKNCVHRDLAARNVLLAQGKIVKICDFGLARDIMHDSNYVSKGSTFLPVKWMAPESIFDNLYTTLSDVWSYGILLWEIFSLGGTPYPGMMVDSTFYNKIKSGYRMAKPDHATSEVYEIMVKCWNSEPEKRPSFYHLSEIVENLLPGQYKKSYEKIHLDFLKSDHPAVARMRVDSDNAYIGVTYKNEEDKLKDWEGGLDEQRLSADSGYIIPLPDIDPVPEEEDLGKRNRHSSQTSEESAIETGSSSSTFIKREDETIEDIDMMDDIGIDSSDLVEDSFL

[4] = target: T3, Tyrosine-protein kinase ZAP-70 (Homo sapiens) (UniProt P43403); assay: Inhibition of human recombinant ZAP70 at 15 nM related to control ULK1
T3 sequence (whole entry): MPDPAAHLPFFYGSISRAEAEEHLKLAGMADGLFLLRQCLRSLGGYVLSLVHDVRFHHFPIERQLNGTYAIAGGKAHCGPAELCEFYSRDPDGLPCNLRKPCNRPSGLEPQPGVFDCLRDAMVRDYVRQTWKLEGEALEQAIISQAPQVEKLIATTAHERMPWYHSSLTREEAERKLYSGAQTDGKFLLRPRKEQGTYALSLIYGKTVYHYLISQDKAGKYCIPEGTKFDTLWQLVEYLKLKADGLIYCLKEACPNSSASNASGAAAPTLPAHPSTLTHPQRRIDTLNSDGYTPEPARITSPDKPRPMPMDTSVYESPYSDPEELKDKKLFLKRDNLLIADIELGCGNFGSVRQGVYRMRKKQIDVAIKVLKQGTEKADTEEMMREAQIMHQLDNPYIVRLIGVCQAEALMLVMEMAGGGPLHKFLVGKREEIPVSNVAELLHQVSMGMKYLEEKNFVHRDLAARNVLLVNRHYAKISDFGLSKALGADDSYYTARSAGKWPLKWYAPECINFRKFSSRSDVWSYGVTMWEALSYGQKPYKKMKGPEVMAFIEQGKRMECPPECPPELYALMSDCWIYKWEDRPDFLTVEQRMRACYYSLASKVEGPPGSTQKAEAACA

[5] = target: Tyrosine-protein kinase Tec (Homo sapiens) (UniProt P42680); assay: Inhibition of human recombinant TEC at 15 nM in presence of ATP by radiometric assay relative to control
Chain of Tyrosine-protein kinase Tec (Homo sapiens) (P42680 whole entry, looked up): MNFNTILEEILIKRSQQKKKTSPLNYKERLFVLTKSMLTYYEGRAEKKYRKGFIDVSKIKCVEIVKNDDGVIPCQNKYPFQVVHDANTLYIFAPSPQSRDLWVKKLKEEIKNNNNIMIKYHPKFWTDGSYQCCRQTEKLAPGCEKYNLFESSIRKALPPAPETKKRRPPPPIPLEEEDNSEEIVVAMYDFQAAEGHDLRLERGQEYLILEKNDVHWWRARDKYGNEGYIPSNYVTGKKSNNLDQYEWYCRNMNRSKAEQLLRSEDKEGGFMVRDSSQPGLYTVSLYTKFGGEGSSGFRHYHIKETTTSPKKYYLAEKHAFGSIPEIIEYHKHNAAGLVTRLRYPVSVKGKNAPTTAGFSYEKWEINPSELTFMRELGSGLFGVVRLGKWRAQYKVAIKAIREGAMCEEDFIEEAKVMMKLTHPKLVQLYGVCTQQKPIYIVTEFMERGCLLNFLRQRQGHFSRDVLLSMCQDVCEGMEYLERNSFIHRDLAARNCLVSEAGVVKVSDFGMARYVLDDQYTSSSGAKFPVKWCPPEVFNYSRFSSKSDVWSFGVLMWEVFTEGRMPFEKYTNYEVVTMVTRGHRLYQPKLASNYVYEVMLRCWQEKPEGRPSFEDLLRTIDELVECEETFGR

[6] = target: Glycogen synthase kinase-3 beta (Homo sapiens) (UniProt P49841); assay: Inhibition of human recombinant GSK3B at 40 nM in presence of ATP by radiometric assay relative to control
Chain of Glycogen synthase kinase-3 beta (Homo sapiens) (P49841 whole entry, looked up): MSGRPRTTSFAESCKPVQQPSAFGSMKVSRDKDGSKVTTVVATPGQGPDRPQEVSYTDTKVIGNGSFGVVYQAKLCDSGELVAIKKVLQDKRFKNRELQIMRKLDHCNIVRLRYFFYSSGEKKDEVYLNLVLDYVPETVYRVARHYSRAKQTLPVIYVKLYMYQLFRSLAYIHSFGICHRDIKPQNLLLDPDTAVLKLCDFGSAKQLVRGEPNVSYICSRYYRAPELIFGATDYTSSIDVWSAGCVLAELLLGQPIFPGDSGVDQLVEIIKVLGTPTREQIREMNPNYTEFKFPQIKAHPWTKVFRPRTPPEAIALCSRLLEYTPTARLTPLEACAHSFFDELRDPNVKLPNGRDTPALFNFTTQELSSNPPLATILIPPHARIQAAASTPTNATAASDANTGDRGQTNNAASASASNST

[7] = target: Tyrosine-protein kinase Lyn (Homo sapiens) (UniProt P07948); assay: Inhibition of human recombinant LYN at 40 nM related to control ULK1
Chain of Tyrosine-protein kinase Lyn (Homo sapiens) (P07948 2-512 limits assumed): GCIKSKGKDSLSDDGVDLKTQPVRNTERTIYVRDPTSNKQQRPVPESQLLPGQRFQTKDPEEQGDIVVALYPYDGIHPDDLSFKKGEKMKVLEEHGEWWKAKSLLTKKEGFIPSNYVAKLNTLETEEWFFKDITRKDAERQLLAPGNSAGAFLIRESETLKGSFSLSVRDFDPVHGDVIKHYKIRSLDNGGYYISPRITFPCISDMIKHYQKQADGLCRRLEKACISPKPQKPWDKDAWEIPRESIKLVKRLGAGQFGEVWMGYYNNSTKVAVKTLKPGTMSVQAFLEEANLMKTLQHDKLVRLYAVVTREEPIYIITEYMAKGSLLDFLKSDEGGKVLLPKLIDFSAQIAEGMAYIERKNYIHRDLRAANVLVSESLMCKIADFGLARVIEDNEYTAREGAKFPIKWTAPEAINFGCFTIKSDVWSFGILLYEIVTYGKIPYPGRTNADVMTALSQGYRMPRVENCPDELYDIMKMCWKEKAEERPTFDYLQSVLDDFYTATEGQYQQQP

[8] = target: Serine/threonine-protein kinase 32C (Homo sapiens) (UniProt Q86UX6); assay: Inhibition of human recombinant YANK3 at 40 nM related to control ULK1
Chain of Serine/threonine-protein kinase 32C (Homo sapiens) (Q86UX6 whole entry): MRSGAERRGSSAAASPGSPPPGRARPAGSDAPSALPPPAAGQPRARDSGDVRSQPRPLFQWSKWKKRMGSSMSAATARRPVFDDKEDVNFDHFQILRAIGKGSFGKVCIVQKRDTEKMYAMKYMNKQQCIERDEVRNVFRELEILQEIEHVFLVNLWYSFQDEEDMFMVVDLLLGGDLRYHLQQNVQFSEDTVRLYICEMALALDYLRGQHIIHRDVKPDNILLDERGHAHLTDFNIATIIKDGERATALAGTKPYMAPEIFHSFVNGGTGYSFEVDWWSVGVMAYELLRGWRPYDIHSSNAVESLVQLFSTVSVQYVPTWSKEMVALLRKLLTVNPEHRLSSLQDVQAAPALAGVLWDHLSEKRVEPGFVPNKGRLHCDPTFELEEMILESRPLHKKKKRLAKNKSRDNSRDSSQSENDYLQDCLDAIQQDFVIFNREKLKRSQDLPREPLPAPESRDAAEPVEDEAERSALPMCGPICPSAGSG

CNC(=O)c1ccccc1Oc1nc(Nc2cc(OC)c(OC)c(OC)c2)ncc1Br
inhibition [1]: 8% | fold change (FC) [2]: 0.11 | fold change (FC) [3]: 0

CC(C)[C@H](NC(=O)c1cc(-c2cnn3cc(-c4ccc(OCCN5CCCCC5)cc4)cnc23)cs1)C(F)(F)F
fold change (FC) [4]: 0 | inhibition [5]: 0%

O=C(N[C@@H](C1CC1)C(F)(F)F)c1cc(-c2cnn3cc(-c4ccc(F)cc4)cnc23)cs1
inhibition [6]: 0% | fold change (FC) [7]: 0.25 | fold change (FC) [8]: 0.07
